Source: US3963756A, “Derivatives of 6-methyl-2H-pyran-2,4(3H)-dione” (Zaidan Hojin Biseibutsu Kagaku Kenkyu Kai, priority 1972, dated 1976)

Tests used:
Dopamine β-Hydroxylase = target: T1, Dopamine β-Hydroxylase (Bos taurus, UniProt P15101); experiment: Inhibition of dopamine β-hydroxylase (DH); format: biochemical
T1 sequence (P15101 1-610): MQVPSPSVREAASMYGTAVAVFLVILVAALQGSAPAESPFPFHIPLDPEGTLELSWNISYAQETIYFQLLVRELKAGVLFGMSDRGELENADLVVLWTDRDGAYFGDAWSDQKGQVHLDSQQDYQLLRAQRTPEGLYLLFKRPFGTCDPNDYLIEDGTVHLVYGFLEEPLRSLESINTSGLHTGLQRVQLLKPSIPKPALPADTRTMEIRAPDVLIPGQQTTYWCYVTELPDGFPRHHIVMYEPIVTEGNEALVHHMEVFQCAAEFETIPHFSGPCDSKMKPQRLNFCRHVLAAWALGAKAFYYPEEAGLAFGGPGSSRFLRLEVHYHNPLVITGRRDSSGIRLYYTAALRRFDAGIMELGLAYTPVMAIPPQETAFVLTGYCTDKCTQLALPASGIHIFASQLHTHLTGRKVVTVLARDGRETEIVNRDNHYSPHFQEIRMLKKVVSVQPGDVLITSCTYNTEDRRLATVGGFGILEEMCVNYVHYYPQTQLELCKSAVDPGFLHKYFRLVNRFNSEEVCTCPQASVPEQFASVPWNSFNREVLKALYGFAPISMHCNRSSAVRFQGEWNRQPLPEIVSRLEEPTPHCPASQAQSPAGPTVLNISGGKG
Source text: (§1) The new compounds of the present invention have been examined for their biological activities, and their inhibition to tyrosine hydroxylase and dopamine β-hydroxylase are summarized below in Table 2. The details of the test methods used and the close relationship and reliable correlation of biological activities between in vitro and in vivo test results are well documented in the literature, e.g. J. Antibiot. 23: 514 (1970); Biochem. Pharmacol., 19: 35 (1970); and J. Am. Chem. Soc. 93: 1285 (1971). […] The effects of this compound on tyrosine hydroxylase and dopamine β-hydroxylase were also tested by the methods described in the Journal of Antibiotics 23:514 (1970) and Biochem. Pharmacol. 19:35 (1970), respectively.
(§2) The chemical structure of the products [I], solvent for hydrogenation and solvent for recrystallization are summarised in Table 1, and the yields of the products [I] are also shown in Table 1 together with their melting points, elemental analysis data, Inhibition (%) of tyrosine hydroxylase (TH) and Inhibition (%) to dopamine β-hydroxylase (DH) at different concentrations of the products [I] of 100 mcg/cc and 200 mcg/cc.

bacteria and fungi = details: Chemical Abstracts 50, 980e; cited from earlier work
Tyrosine Hydroxylase = target: T2, Tyrosine Hydroxylase (Bos taurus, UniProt P17289); experiment: Inhibition of tyrosine hydroxylase (TH); format: biochemical
T2 sequence (P17289 1-491): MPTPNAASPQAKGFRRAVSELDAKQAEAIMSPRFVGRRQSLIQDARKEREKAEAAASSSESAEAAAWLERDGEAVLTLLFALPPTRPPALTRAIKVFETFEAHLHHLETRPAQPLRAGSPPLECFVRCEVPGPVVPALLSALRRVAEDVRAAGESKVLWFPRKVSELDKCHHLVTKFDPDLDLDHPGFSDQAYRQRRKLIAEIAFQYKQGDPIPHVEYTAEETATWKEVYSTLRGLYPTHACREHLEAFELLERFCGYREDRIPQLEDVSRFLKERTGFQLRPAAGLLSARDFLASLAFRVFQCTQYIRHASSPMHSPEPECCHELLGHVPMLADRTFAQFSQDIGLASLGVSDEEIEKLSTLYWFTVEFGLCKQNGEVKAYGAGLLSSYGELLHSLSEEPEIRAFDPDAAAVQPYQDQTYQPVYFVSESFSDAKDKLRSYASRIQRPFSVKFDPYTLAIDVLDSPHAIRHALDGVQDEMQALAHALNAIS
Source text: as §1, §2

[1] = Lowering of blood pressure (general statements); parameters: species or system mammals; details: in vivo
[2] = Toxicity in mice (LD50; 30-day daily dosing); format: in vivo; details: mouse, in vivo, ip; mice, intraperitoneal injection
mice and rats = experiment: Sleeping / sedative effect in mice and rats; format: in vivo; details: injection of 200 mg/kg to mice and rats
Source text: (§3) Hydroxylation of tyrosine is the rate-limiting step of norepinephrine biosynthesis. Therefore, inhibition of tyrosine hydroxylase results in inhibition of norepinephrine synthesis in vivo which results in lowering the blood pressure. […] Okamoto, of the Medical School, University of Kyoto, Japan, and described in "Journal of Antibiotics" 23: 514 (1970).

[3] = tested on: genetically hypertensive rats; experiment: Blood pressure in genetically hypertensive rats; format: in vivo; details: genetically hypertensive rats (Okamoto)
Source text: as §3

rat = experiment: Blood pressure in rats; format: in vivo; details: for systolic blood pressure lowered to: 6.25 mg/kg i.p.
Method: as §3
When 6.25 mg/kg was intraperitoneally injected to a rat of 185 mm. systolic blood pressure and another rat of 188 mm., the blood pressure was then lowered to 115-145 mm. and 138-166 mm. respectively during 1-22 hours after the injection. When […]. was intraperitoneally injected to a rat of 190 mm. systolic blood pressure, the pressure was reduced to 146-162 mm. during 1-22 hours after the injection. […] It caused 20-30% reduction of blood pressure which continued for about 5 days after the last oral administration.

mice = experiment: Toxicity in mice (LD50; 30-day daily dosing); format: in vivo; details: 160, 40 and 10 mg/kg orally or intraperitoneally daily to mice for 30 days
[4] = oral daily for three days, 3.1, 6.25, 12.5, 25 mg/kg

In the case of `CC1=CC(=O)C(C(=O)CCc2ccccc2)C(=O)O1` (stereo not drawn) [3-hydrocinnamoyl-6-methyl-2H-pyran-2,4(3H)-dione, reference compound], the “inhibition to DH” value (Dopamine β-Hydroxylase; 100 mcg/cc) is listed as 100%, the “antibacterial and antifungal activity” value (bacteria and fungi) is listed as “weak antibacterial and antifungal activity” and the inhibition at 100 µg/mL (Tyrosine Hydroxylase; 100 mcg/cc) is listed as 49.7%. For the same compound, the inhibition at 200 µg/mL (Tyrosine Hydroxylase; 200 mcg/cc) was 52.8% and the “blood pressure reducing (hypotensive) activity, in words” value [1] was “active in reducing blood pressure”.

For `COc1ccccc1CCC(=O)C1C(=O)C=C(C)OC1=O` (stereo not drawn) [3-(2-methoxyhydrocinnamoyl)-6-methyl-2H-pyran-2,4(3H)-dione] [listing 1 of 2 here], the IC50 (Dopamine β-Hydroxylase) was 1910 nM and the LD50 [2] was 1200 mg/kg.

With `COc1ccccc1CCC(=O)C1C(=O)C=C(C)OC1=O` (stereo not drawn) [3-(2-methoxyhydrocinnamoyl)-6-methyl-2H-pyran-2,4(3H)-dione] [listing 2 of 2 here] the “sleeping and sedative effect” value (mice and rats) was “did not cause sleeping and a sedative effect was not recognized”, the hypotensive effect [3] was “even more markedly” and the “duration of blood pressure reduction after the last oral administration” value (rat; [4]) was “about 5 days”. For the same compound, the “reduction of blood pressure” value (rat; [4]) was 20-30%, the “reduction of blood pressure (in words)” value (rat; [4]) was “marked reduction of blood pressure” and the “systolic blood pressure lowered to” value (rat; rat of 185 mm systolic, during 1-22 hours after injection) was 115-145 mm. For the same compound, the “systolic blood pressure lowered to” value (rat; rat of 188 mm systolic, during 1-22 hours after injection) was 138-166 mm, the “systolic blood pressure reduced to” value (rat; rat of 190 mm systolic, 12.5 mm/kg (so in the source) i.p., during 1-22 hours after injection) was 146-162 mm and the “systolic and diastolic blood pressure” value (rat; rats, daily injection or daily oral administration, 3.5 mg/kg) was “lowered both the systolic and the diastolic blood pressure”. For the same compound, the usual toxic signs (mice) was “none of the usual toxic signs appeared except a decrease in the blood pressure”, the “inhibition % to tyrosine hydroxylase” value (Tyrosine Hydroxylase; 12.5 mcg/cc) was 10% and the “inhibition % to tyrosine hydroxylase” value (Tyrosine Hydroxylase; 25 mcg/cc) was 18%. The “inhibition % to tyrosine hydroxylase” value (Tyrosine Hydroxylase; 50 mcg/cc) was 22% and the “inhibition % to tyrosine hydroxylase” value (Tyrosine Hydroxylase; 100 mcg/cc) was 32%.
